Laboratory results as given in ChEMBL document CHEMBL3045236, “Conventional and microwave techniques for synthesis and antimicrobial studies of novel 1-[2-(2-chloro(3-quinolyl))-5-(4-nitrophenyl)-(1,3,4-oxadiazolin-3-yl)]-3-(aryl)prop-2-en-1-ones” (2012).
Converted amounts (≈) assume the structure as drawn.

Key:
Assay type in all cases: functional
Aspergillus clavatus = test: Antimicrobial activity against Aspergillus clavatus MTCC 1323
Aspergillus niger = test: Antimicrobial activity against Aspergillus niger MTCC 282
Candida albicans = test: Antimicrobial activity against Candida albicans MTCC 227
Streptococcus pyogenes = test: Antimicrobial activity against Streptococcus pyogenes MTCC 442 after 24 and 48 hr by serial broth dilution method
Staphylococcus aureus = test: Antimicrobial activity against Staphylococcus aureus MTCC 96 after 24 and 48 hr by serial broth dilution method
Pseudomonas aeruginosa = test: Antimicrobial activity against Pseudomonas aeruginosa MTCC 1688 after 24 and 48 hr by serial broth dilution method
Escherichia coli = test: Antimicrobial activity against Escherichia coli MTCC 443 after 24 and 48 hr by serial broth dilution method

`Cc1ccc(/C=C/C(=O)N2N=C(c3ccc([N+](=O)[O-])cc3)OC2c2cc3ccccc3nc2Cl)cc1` (stereo unspecified) was tested. Which MIC (Aspergillus clavatus) did it give?
Its MIC is 1000 µg/mL (≈ 2000 µM).

And the MIC (Aspergillus niger)?
Its MIC is 100 µg/mL (≈ 200 µM).

And the MIC (Candida albicans)?
The MIC was 250 µg/mL (≈ 501 µM).

And the MIC (Streptococcus pyogenes)?
The MIC was 250 µg/mL (≈ 501 µM).

And the MIC (Staphylococcus aureus)?
Its MIC is 200 µg/mL (≈ 401 µM).

And the MIC (Pseudomonas aeruginosa)?
Its MIC is 100 µg/mL (≈ 200 µM).

What about the MIC (Escherichia coli) of the same compound?
The MIC was 200 µg/mL (≈ 401 µM).

How did the MIC (Aspergillus clavatus) turn out when `COc1ccc(/C=C/C(=O)N2N=C(c3ccc([N+](=O)[O-])cc3)OC2c2cc3ccccc3nc2Cl)cc1` (stereo unspecified) was run?
The MIC was 100 µg/mL (≈ 194 µM).

What about the MIC (Aspergillus niger) of the same compound?
Its MIC is 1000 µg/mL (≈ 1940 µM).

And the MIC (Candida albicans)?
The MIC was 500 µg/mL (≈ 971 µM).

What about the MIC (Streptococcus pyogenes) of the same compound?
Its MIC is 100 µg/mL (≈ 194 µM).

And the MIC (Staphylococcus aureus)?
Its MIC is 100 µg/mL (≈ 194 µM).

And the MIC (Pseudomonas aeruginosa)?
Its MIC is 500 µg/mL (≈ 971 µM).

What about the MIC (Escherichia coli) of the same compound?
Its MIC is 100 µg/mL (≈ 194 µM).

With `COc1cc(/C=C/C(=O)N2N=C(c3ccc([N+](=O)[O-])cc3)OC2c2cc3ccccc3nc2Cl)cc(OC)c1OC` (stereo unspecified) as the compound, how does the MIC (Aspergillus clavatus) read?
Its MIC is 100 µg/mL (≈ 174 µM).

And the MIC (Aspergillus niger)?
The MIC was 100 µg/mL (≈ 174 µM).

And the MIC (Candida albicans)?
The MIC was 100 µg/mL (≈ 174 µM).

And the MIC (Streptococcus pyogenes)?
Its MIC is 500 µg/mL (≈ 870 µM).

And the MIC (Staphylococcus aureus)?
Its MIC is 500 µg/mL (≈ 870 µM).

And the MIC (Pseudomonas aeruginosa)?
Its MIC is 200 µg/mL (≈ 348 µM).

What about the MIC (Escherichia coli) of the same compound?
The MIC was 200 µg/mL (≈ 348 µM).

Which results are given for `O=C(/C=C/c1ccccc1Cl)N1N=C(c2ccc([N+](=O)[O-])cc2)OC1c1cc2ccccc2nc1Cl` (stereo unspecified)?
MIC (Aspergillus clavatus): 500 µg/mL (≈ 963 µM); MIC (Aspergillus niger): 500 µg/mL (≈ 963 µM); MIC (Candida albicans): 250 µg/mL (≈ 481 µM); MIC (Streptococcus pyogenes): 500 µg/mL (≈ 963 µM); MIC (Staphylococcus aureus): 500 µg/mL (≈ 963 µM); MIC (Pseudomonas aeruginosa): 500 µg/mL (≈ 963 µM); MIC (Escherichia coli): 500 µg/mL (≈ 963 µM)

Which results are given for `O=C(/C=C/c1cccc(Cl)c1)N1N=C(c2ccc([N+](=O)[O-])cc2)OC1c1cc2ccccc2nc1Cl` (stereo unspecified)?
MIC (Aspergillus clavatus): 500 µg/mL (≈ 963 µM); MIC (Aspergillus niger): 100 µg/mL (≈ 193 µM); MIC (Candida albicans): 100 µg/mL (≈ 193 µM); MIC (Streptococcus pyogenes): 100 µg/mL (≈ 193 µM); MIC (Staphylococcus aureus): 100 µg/mL (≈ 193 µM); MIC (Pseudomonas aeruginosa): 200 µg/mL (≈ 385 µM); MIC (Escherichia coli): 100 µg/mL (≈ 193 µM)

For `O=C(/C=C/c1ccc(Cl)cc1)N1N=C(c2ccc([N+](=O)[O-])cc2)OC1c1cc2ccccc2nc1Cl` (stereo unspecified), which MIC (Aspergillus clavatus) is on record?
The MIC was 1000 µg/mL (≈ 1930 µM).

What about the MIC (Aspergillus niger) of the same compound?
Its MIC is 200 µg/mL (≈ 385 µM).

And the MIC (Candida albicans)?
Its MIC is 100 µg/mL (≈ 193 µM).

And the MIC (Streptococcus pyogenes)?
Its MIC is 500 µg/mL (≈ 963 µM).

And the MIC (Staphylococcus aureus)?
The MIC was 1000 µg/mL (≈ 1930 µM).

And the MIC (Pseudomonas aeruginosa)?
The MIC was 100 µg/mL (≈ 193 µM).

And the MIC (Escherichia coli)?
The MIC was 200 µg/mL (≈ 385 µM).

How did the MIC (Aspergillus clavatus) turn out when `O=C(/C=C/c1ccccc1[N+](=O)[O-])N1N=C(c2ccc([N+](=O)[O-])cc2)OC1c1cc2ccccc2nc1Cl` (stereo unspecified) was run?
The MIC was 100 µg/mL (≈ 189 µM).

What about the MIC (Aspergillus niger) of the same compound?
The MIC was 500 µg/mL (≈ 944 µM).

What about the MIC (Candida albicans) of the same compound?
The MIC was 500 µg/mL (≈ 944 µM).

And the MIC (Streptococcus pyogenes)?
Its MIC is 200 µg/mL (≈ 377 µM).

What about the MIC (Staphylococcus aureus) of the same compound?
Its MIC is 500 µg/mL (≈ 944 µM).

What about the MIC (Pseudomonas aeruginosa) of the same compound?
The MIC was 50 µg/mL (≈ 94.4 µM).

And the MIC (Escherichia coli)?
Its MIC is 50 µg/mL (≈ 94.4 µM).

How did the MIC (Aspergillus clavatus) turn out when `O=C(/C=C/c1cccc([N+](=O)[O-])c1)N1N=C(c2ccc([N+](=O)[O-])cc2)OC1c1cc2ccccc2nc1Cl` (stereo unspecified) was run?
Its MIC is 500 µg/mL (≈ 944 µM).

What about the MIC (Aspergillus niger) of the same compound?
Its MIC is 100 µg/mL (≈ 189 µM).

And the MIC (Candida albicans)?
The MIC was 100 µg/mL (≈ 189 µM).

And the MIC (Streptococcus pyogenes)?
Its MIC is 100 µg/mL (≈ 189 µM).

And the MIC (Staphylococcus aureus)?
Its MIC is 500 µg/mL (≈ 944 µM).

And the MIC (Pseudomonas aeruginosa)?
The MIC was 500 µg/mL (≈ 944 µM).

And the MIC (Escherichia coli)?
The MIC was 1000 µg/mL (≈ 1890 µM).

What does the source list for `O=C(/C=C/c1ccc([N+](=O)[O-])cc1)N1N=C(c2ccc([N+](=O)[O-])cc2)OC1c1cc2ccccc2nc1Cl` (stereo unspecified)?
MIC (Aspergillus clavatus): 100 µg/mL (≈ 189 µM); MIC (Aspergillus niger): 1000 µg/mL (≈ 1890 µM); MIC (Candida albicans): 500 µg/mL (≈ 944 µM); MIC (Streptococcus pyogenes): 500 µg/mL (≈ 944 µM); MIC (Staphylococcus aureus): 100 µg/mL (≈ 189 µM); MIC (Pseudomonas aeruginosa): 500 µg/mL (≈ 944 µM); MIC (Escherichia coli): 100 µg/mL (≈ 189 µM)

What does the source list for `O=C(/C=C/c1ccccc1O)N1N=C(c2ccc([N+](=O)[O-])cc2)OC1c1cc2ccccc2nc1Cl` (stereo unspecified)?
MIC (Aspergillus clavatus): 500 µg/mL (≈ 998 µM); MIC (Aspergillus niger): 500 µg/mL (≈ 998 µM); MIC (Candida albicans): 1000 µg/mL (≈ 2000 µM); MIC (Streptococcus pyogenes): 250 µg/mL (≈ 499 µM); MIC (Staphylococcus aureus): 500 µg/mL (≈ 998 µM); MIC (Pseudomonas aeruginosa): 250 µg/mL (≈ 499 µM); MIC (Escherichia coli): 500 µg/mL (≈ 998 µM)

What does the source list for `O=C(/C=C/c1cccc(O)c1)N1N=C(c2ccc([N+](=O)[O-])cc2)OC1c1cc2ccccc2nc1Cl` (stereo unspecified)?
MIC (Aspergillus clavatus): 100 µg/mL (≈ 200 µM); MIC (Aspergillus niger): 200 µg/mL (≈ 399 µM); MIC (Candida albicans): 500 µg/mL (≈ 998 µM); MIC (Streptococcus pyogenes): 100 µg/mL (≈ 200 µM); MIC (Staphylococcus aureus): 200 µg/mL (≈ 399 µM); MIC (Pseudomonas aeruginosa): 50 µg/mL (≈ 99.8 µM); MIC (Escherichia coli): 25 µg/mL (≈ 49.9 µM)

How did the MIC (Aspergillus clavatus) turn out when `O=C(/C=C/c1ccc(O)cc1)N1N=C(c2ccc([N+](=O)[O-])cc2)OC1c1cc2ccccc2nc1Cl` (stereo unspecified) was run?
Its MIC is 500 µg/mL (≈ 998 µM).

And the MIC (Aspergillus niger)?
The MIC was 100 µg/mL (≈ 200 µM).

And the MIC (Candida albicans)?
Its MIC is 500 µg/mL (≈ 998 µM).

What about the MIC (Streptococcus pyogenes) of the same compound?
Its MIC is 500 µg/mL (≈ 998 µM).

And the MIC (Staphylococcus aureus)?
Its MIC is 100 µg/mL (≈ 200 µM).

And the MIC (Pseudomonas aeruginosa)?
The MIC was 50 µg/mL (≈ 99.8 µM).

And the MIC (Escherichia coli)?
Its MIC is 250 µg/mL (≈ 499 µM).

How did the MIC (Streptococcus pyogenes) turn out when `CC1(C)S[C@@H]2[C@H](NC(=O)[C@H](N)c3ccccc3)C(=O)N2[C@H]1C(=O)O` [AMPICILLIN] was run?
Its MIC is 100 µg/mL (≈ 286 µM).

What about the MIC (Staphylococcus aureus) of the same compound?
Its MIC is 250 µg/mL (≈ 715 µM).

And the MIC (Pseudomonas aeruginosa)?
Its MIC is 100 µg/mL (≈ 286 µM).

What about the MIC (Escherichia coli) of the same compound?
The MIC was 100 µg/mL (≈ 286 µM).

Which MIC (Aspergillus clavatus) does the source give for `COC1=CC(=O)C[C@@H](C)[C@]12Oc1c(Cl)c(OC)cc(OC)c1C2=O` [GRISEOFULVIN] here?
Its MIC is 100 µg/mL (≈ 283 µM).

And the MIC (Aspergillus niger)?
Its MIC is 100 µg/mL (≈ 283 µM).

And the MIC (Candida albicans)?
Its MIC is 500 µg/mL (≈ 1420 µM).
